Where a name gives a salt, the structure may show the parent alone.
Test system: prurigo nodularis patients
Assay: TR03ext (Example 3): Prurigo Activity Score (PAS) healed lesions; Stage 0 100% healed, Stage 1 75%-99%, Stage 2 50%-74%, Stage 3 25%-49%, Stage 4 0-24% healed
Assay type: in vivo, human
Text: In some embodiments, after the treatment the patient experiences a substantial reduction of itch that is characterized by at least one category/stage improvement in Prurigo Activity Score (PAS). In particular embodiments, after the treatment the patient experiences a reduction of itch that results in at least one category/stage improvement in Prurigo Activity Score (PAS) domains of number of prurigo lesions, prurigo lesions with excoriations/crusts and/or healed prurigo lesions. The PAS consists of 7 qualitative and quantitative measurements related to the examination of the skin. Type, number, distribution, affected body parts, and quantitative number of lesions in a representative body part are documented. The biggest lesion and the most representative lesion are monitored with documentation of height and area measurements. Prurigo lesion activity is recorded as a percentages based on their stage (0-4). In some embodiments, number measurements of lesions on the body have four numerical categories: 0, 1-19, 20-100 and >100. In some embodiments, prurigo lesions with excoriations/crusts have five categories: Stage 4 (76%-100%), Stage 3 (51%-75%), Stage 2 (26%-50%), Stage 1 (1-25%) and Stage 0 (0%). In some embodiments, healed prurigo lesions have five categories: Stage 4 (0-24%), Stage 3 (25-49%), Stage 2 (50-74%), Stage 1 (75%-99%), Stage 0 (100%).
This clinical study was a Phase 2 Open Label Extension Study (clinical study TR03ext) of the randomized, double-blind, 3-parallel arm, placebo controlled dose ranging study described in Example 2. All those subjects who were randomized, and then completed Example 2 study, were eligible to participate in the Extension Study.
The primary endpoint was a description of the overall incidence and nature of Treatment-Emergent AEs (TEAES) during weeks 5-50 of the study. Exploratory efficacy endpoints included Change from Baseline patient reported outcome measures of Worst itch NRS, itchy VRS and ItchyQoL, by Treatment Period study visit and Baseline NRS score. There was also an assessment of any potential skin lesion changes over time using the metrics of the PAS.
Patients in Extension Study were titrated over a dose range of 30 mg QD to 180 mg BID based on tolerability. The selected dose range was based on Example 2 study whereby patients were titrated from a 30 mg QD dose either to 30 mg BID, 60 mg BID, 90 mg BID, 120 mg BID or a 180 mg BID dose. The highest dose proposed was 180 mg BID (360 mg daily dose), and was well below the highest recommended daily treatment of 160 mg IV (equivalent to 960 mg oral) for the current marketed parenteral administered product.
Tables 12, 13 and 14 display healed lesion PAS data for subjects who received treatment for at least 6 months, subjects who received treatment for at least 9 months and subjects who completed 50 weeks of treatment in the study, respectively. The status of the healed lesion activity is reported as percentages based on their stage (0-4) using a grading system: Stage 0 (100% healed); Stage 1 (75%-99% healed); Stage 2 (50%-74% healed); Stage 3 (25%-49% healed); Stage 4: 0-24% healed. Thus the higher the stage, the […] the prurigo skin pathology.

[1] = treatment for at least 6 months
[2] = treatment for at least 9 months

SMILES: Oc1ccc2c3c1OC1[C@@H](O)CC[C@@]4(O)[C@@H](C2)N(CC2CCC2)CC[C@]314 (stereo partly drawn) [Nalbuphine, 17-(cyclobutylmethyl)-4,5α-epoxymorphinian-3, 6α, 14-triol, hydrochloride]
- Subjects with at least one category improvement in the percentage of healed lesions (PAS) (after 6 months, 10/16): 62.5%
- Subjects with at least one category improvement in the percentage of healed lesions (PAS) (after 9 months, 7/13): 53.8%
- Subjects with at least one category improvement in the percentage of healed lesions (PAS) (after 12 months, 6/12): 50%
- Healed lesion PAS Category Shift: Baseline Stage 0 to Last Observed Stage 0 (treatment for 50 weeks): 1 (7.7) Number (%) of Subjects
- Healed lesion PAS Category Shift: Baseline Stage 0 to Last Observed Stage 1 (treatment for 50 weeks): 0 Number (%) of Subjects
- Healed lesion PAS Category Shift: Baseline Stage 0 to Last Observed Stage 2 (treatment for 50 weeks): 0 Number (%) of Subjects
- Healed lesion PAS Category Shift: Baseline Stage 0 to Last Observed Stage 3 (treatment for 50 weeks): 0 Number (%) of Subjects
- Healed lesion PAS Category Shift: Baseline Stage 0 to Last Observed Stage 4 (treatment for 50 weeks): 0 Number (%) of Subjects
- Healed lesion PAS Category Shift: Baseline Stage 1 to Last Observed Stage 0 (treatment for 50 weeks): 0 Number (%) of Subjects
- Healed lesion PAS Category Shift: Baseline Stage 1 to Last Observed Stage 1 (treatment for 50 weeks): 2 (15.4) Number (%) of Subjects
- Healed lesion PAS Category Shift: Baseline Stage 1 to Last Observed Stage 2 (treatment for 50 weeks): 1 (7.7) Number (%) of Subjects
- Healed lesion PAS Category Shift: Baseline Stage 1 to Last Observed Stage 3 (treatment for 50 weeks): 0 Number (%) of Subjects
- Healed lesion PAS Category Shift: Baseline Stage 1 to Last Observed Stage 4 (treatment for 50 weeks): 0 Number (%) of Subjects
- Healed lesion PAS Category Shift: Baseline Stage 2 to Last Observed Stage 0 (treatment for 50 weeks): 0 Number (%) of Subjects
- Healed lesion PAS Category Shift: Baseline Stage 2 to Last Observed Stage 1 (treatment for 50 weeks): 3 (23.1) Number (%) of Subjects
- Healed lesion PAS Category Shift: Baseline Stage 2 to Last Observed Stage 2 (treatment for 50 weeks): 0 Number (%) of Subjects
- Healed lesion PAS Category Shift: Baseline Stage 2 to Last Observed Stage 3 (treatment for 50 weeks): 0 Number (%) of Subjects
- Healed lesion PAS Category Shift: Baseline Stage 2 to Last Observed Stage 4 (treatment for 50 weeks): 0 Number (%) of Subjects
- Healed lesion PAS Category Shift: Baseline Stage 3 to Last Observed Stage 0 (treatment for 50 weeks): 0 Number (%) of Subjects
- Healed lesion PAS Category Shift: Baseline Stage 3 to Last Observed Stage 1 (treatment for 50 weeks): 0 Number (%) of Subjects
- Healed lesion PAS Category Shift: Baseline Stage 3 to Last Observed Stage 2 (treatment for 50 weeks): 0 Number (%) of Subjects
- Healed lesion PAS Category Shift: Baseline Stage 3 to Last Observed Stage 3 (treatment for 50 weeks): 2 (15.4) Number (%) of Subjects
- Healed lesion PAS Category Shift: Baseline Stage 3 to Last Observed Stage 4 (treatment for 50 weeks): 0 Number (%) of Subjects
- Healed lesion PAS Category Shift: Baseline Stage 4 to Last Observed Stage 0 (treatment for 50 weeks): 1 (7.7) Number (%) of Subjects
- Healed lesion PAS Category Shift: Baseline Stage 4 to Last Observed Stage 1 (treatment for 50 weeks): 0 (7.7) Number (%) of Subjects
- Healed lesion PAS Category Shift: Baseline Stage 4 to Last Observed Stage 2 (treatment for 50 weeks): 1 (7.7) Number (%) of Subjects
- Healed lesion PAS Category Shift: Baseline Stage 4 to Last Observed Stage 3 (treatment for 50 weeks): 1 (7.7) Number (%) of Subjects
- Healed lesion PAS: Last Observed PAS Result Stage 0 (treatment for 50 weeks): 2 (15.4) Number (%) of Subjects
- Healed lesion PAS: Last Observed PAS Result Stage 1 (treatment for 50 weeks): 6 (46.1) Number (%) of Subjects
- Healed lesion PAS: Last Observed PAS Result Stage 2 (treatment for 50 weeks): 2 (15.4) Number (%) of Subjects
- Healed lesion PAS: Last Observed PAS Result Stage 3 (treatment for 50 weeks): 3 (23.1) Number (%) of Subjects
- Healed lesion PAS: Last Observed PAS Result Stage 4 (treatment for 50 weeks): 1 (7.7) Number (%) of Subjects
- Healed lesion PAS Category Shift: Baseline Stage 0 to Last Observed Stage 0 [1]: 1 (5.9) Number (%) of Subjects
- Healed lesion PAS Category Shift: Baseline Stage 0 to Last Observed Stage 1 [1]: 0 Number (%) of Subjects
- Healed lesion PAS Category Shift: Baseline Stage 0 to Last Observed Stage 2 [1]: 0 Number (%) of Subjects
- Healed lesion PAS Category Shift: Baseline Stage 0 to Last Observed Stage 3 [1]: 0 Number (%) of Subjects
- Healed lesion PAS Category Shift: Baseline Stage 0 to Last Observed Stage 4 [1]: 0 Number (%) of Subjects
- Healed lesion PAS Category Shift: Baseline Stage 1 to Last Observed Stage 0 [1]: 0 Number (%) of Subjects
- Healed lesion PAS Category Shift: Baseline Stage 1 to Last Observed Stage 1 [1]: 2 (11.8) Number (%) of Subjects
- Healed lesion PAS Category Shift: Baseline Stage 1 to Last Observed Stage 2 [1]: 1 (5.9) Number (%) of Subjects
- Healed lesion PAS Category Shift: Baseline Stage 1 to Last Observed Stage 3 [1]: 0 Number (%) of Subjects
- Healed lesion PAS Category Shift: Baseline Stage 1 to Last Observed Stage 4 [1]: 0 Number (%) of Subjects
- Healed lesion PAS Category Shift: Baseline Stage 2 to Last Observed Stage 0 [1]: 1 (5.9) Number (%) of Subjects
- Healed lesion PAS Category Shift: Baseline Stage 2 to Last Observed Stage 1 [1]: 3 (17.6) Number (%) of Subjects
- Healed lesion PAS Category Shift: Baseline Stage 2 to Last Observed Stage 2 [1]: 0 Number (%) of Subjects
- Healed lesion PAS Category Shift: Baseline Stage 2 to Last Observed Stage 3 [1]: 0 Number (%) of Subjects
- Healed lesion PAS Category Shift: Baseline Stage 2 to Last Observed Stage 4 [1]: 0 Number (%) of Subjects
- Healed lesion PAS Category Shift: Baseline Stage 3 to Last Observed Stage 0 [1]: 0 Number (%) of Subjects
- Healed lesion PAS Category Shift: Baseline Stage 3 to Last Observed Stage 1 [1]: 1 (5.9) Number (%) of Subjects
- Healed lesion PAS Category Shift: Baseline Stage 3 to Last Observed Stage 2 [1]: 0 Number (%) of Subjects
- Healed lesion PAS Category Shift: Baseline Stage 3 to Last Observed Stage 3 [1]: 2 (11.8) Number (%) of Subjects
- Healed lesion PAS Category Shift: Baseline Stage 3 to Last Observed Stage 4 [1]: 0 Number (%) of Subjects
- Healed lesion PAS Category Shift: Baseline Stage 4 to Last Observed Stage 0 [1]: 1 (5.9) Number (%) of Subjects
- Healed lesion PAS Category Shift: Baseline Stage 4 to Last Observed Stage 1 [1]: 2 (11.8) Number (%) of Subjects
- Healed lesion PAS Category Shift: Baseline Stage 4 to Last Observed Stage 2 [1]: 1 (5.9) Number (%) of Subjects
- Healed lesion PAS Category Shift: Baseline Stage 4 to Last Observed Stage 3 [1]: 1 (5.9) Number (%) of Subjects
- Healed lesion PAS Category Shift: Baseline Stage 4 to Last Observed Stage 4 [1]: 1 (5.9) Number (%) of Subjects
- Healed lesion PAS: Last Observed PAS Result Stage 0 [1]: 3 (17.6) Number (%) of Subjects
- Healed lesion PAS: Last Observed PAS Result Stage 1 [1]: 9 (52.9) Number (%) of Subjects
- Healed lesion PAS: Last Observed PAS Result Stage 2 [1]: 2 (11.8) Number (%) of Subjects
- Healed lesion PAS: Last Observed PAS Result Stage 3 [1]: 3 (17.6) Number (%) of Subjects
- Healed lesion PAS: Last Observed PAS Result Stage 4 [1]: 1 (5.9) Number (%) of Subjects
- Healed lesion PAS Category Shift: Baseline Stage 0 to Last Observed Stage 0 [2]: 1 (7.1%) Number (%) of Subjects
- Healed lesion PAS Category Shift: Baseline Stage 0 to Last Observed Stage 1 [2]: 0 Number (%) of Subjects
- Healed lesion PAS Category Shift: Baseline Stage 0 to Last Observed Stage 2 [2]: 0 Number (%) of Subjects
- Healed lesion PAS Category Shift: Baseline Stage 0 to Last Observed Stage 3 [2]: 0 Number (%) of Subjects
- Healed lesion PAS Category Shift: Baseline Stage 0 to Last Observed Stage 4 [2]: 0 Number (%) of Subjects
- Healed lesion PAS Category Shift: Baseline Stage 1 to Last Observed Stage 0 [2]: 0 Number (%) of Subjects
- Healed lesion PAS Category Shift: Baseline Stage 1 to Last Observed Stage 1 [2]: 2 (14.3) Number (%) of Subjects
- Healed lesion PAS Category Shift: Baseline Stage 1 to Last Observed Stage 2 [2]: 1 (7.1) Number (%) of Subjects
- Healed lesion PAS Category Shift: Baseline Stage 1 to Last Observed Stage 3 [2]: 0 Number (%) of Subjects
- Healed lesion PAS Category Shift: Baseline Stage 1 to Last Observed Stage 4 [2]: 0 Number (%) of Subjects
- Healed lesion PAS Category Shift: Baseline Stage 2 to Last Observed Stage 0 [2]: 0 Number (%) of Subjects
- Healed lesion PAS Category Shift: Baseline Stage 2 to Last Observed Stage 1 [2]: 3 (21.4) Number (%) of Subjects
- Healed lesion PAS Category Shift: Baseline Stage 2 to Last Observed Stage 2 [2]: 0 Number (%) of Subjects
- Healed lesion PAS Category Shift: Baseline Stage 2 to Last Observed Stage 3 [2]: 0 Number (%) of Subjects
- Healed lesion PAS Category Shift: Baseline Stage 2 to Last Observed Stage 4 [2]: 0 Number (%) of Subjects
- Healed lesion PAS Category Shift: Baseline Stage 3 to Last Observed Stage 0 [2]: 0 Number (%) of Subjects
- Healed lesion PAS Category Shift: Baseline Stage 3 to Last Observed Stage 1 [2]: 0 Number (%) of Subjects
- Healed lesion PAS Category Shift: Baseline Stage 3 to Last Observed Stage 2 [2]: 0 Number (%) of Subjects
- Healed lesion PAS Category Shift: Baseline Stage 3 to Last Observed Stage 3 [2]: 2 (14.3) Number (%) of Subjects
- Healed lesion PAS Category Shift: Baseline Stage 3 to Last Observed Stage 4 [2]: 0 Number (%) of Subjects
- Healed lesion PAS Category Shift: Baseline Stage 4 to Last Observed Stage 0 [2]: 1 (7.1) Number (%) of Subjects
- Healed lesion PAS Category Shift: Baseline Stage 4 to Last Observed Stage 1 [2]: 1 (7.1) Number (%) of Subjects
- Healed lesion PAS Category Shift: Baseline Stage 4 to Last Observed Stage 2 [2]: 1 (7.1) Number (%) of Subjects
- Healed lesion PAS Category Shift: Baseline Stage 4 to Last Observed Stage 3 [2]: 1 (7.1) Number (%) of Subjects
- Healed lesion PAS Category Shift: Baseline Stage 4 to Last Observed Stage 4 [2]: 1 (7.1) Number (%) of Subjects
- Healed lesion PAS: Last Observed PAS Result Stage 0 [2]: 2 (14.3) Number (%) of Subjects
- Healed lesion PAS: Last Observed PAS Result Stage 1 [2]: 6 (42.9) Number (%) of Subjects
- Healed lesion PAS: Last Observed PAS Result Stage 2 [2]: 2 (14.3) Number (%) of Subjects
- Healed lesion PAS: Last Observed PAS Result Stage 3 [2]: 3 (21.4) Number (%) of Subjects
- Healed lesion PAS: Last Observed PAS Result Stage 4 [2]: 1 (7.1) Number (%) of Subjects
